In patent EP4786487A1, “PEPTIDE” (Peptidream Inc, priority 2023, dated 2025):
Read-outs that look alike come from different tables or passages of the source. Starred links: 1 amine or outer side, 2 acyl side, 3 side chain; linkers in the order of their positions; H or OH if unused. Positions of bridges follow the written chain, without caps; N, C: chain ends. Non-standard residues stand in square brackets, D forms with d. Residues, ends and D or L forms follow the SMILES beside them. Groups on a side chain read outwards from the residue. *: point of attachment. Ala(1-CH2CO2H-4-piperidyl) = N[C@@H](CC1CCN(CC(=O)O)CC1)C(=O)O; X4 = CN(C)C(=O)Cn1cc(-c2ccc(C[C@H](N[*:1])C(=O)[*:2])cc2)cn1; Phe(3-OCH2COOH) = N[C@@H](Cc1cccc(OCC(=O)O)c1)C(=O)O; Phe(4-COOH) = N[C@@H](Cc1ccc(C(=O)O)cc1)C(=O)O; Piperazinyl(4-CH2COOH) = O=C(O)CN1CCN(*)CC1; Gly(Nα-CH2CH2CONH2) = NC(=O)CCNCC(=O)O; Gly(decyl) = CCCCCCCCCC[C@H](N)C(=O)O; Gly(N(CH2)3COOH) = O=C(O)CCCNCC(=O)O; X1 = CCCCCCC[C@H](N[*:1])C(=O)[*:2]; X7 = COCCCCC[C@H](N[*:1])C(=O)[*:2]; NMeCha = CN[C@@H](CC1CCCCC1)C(=O)O; NMeF = CN[C@@H](Cc1ccccc1)C(=O)O; 4Pal = N[C@@H](Cc1ccncc1)C(=O)O; Cha = N[C@@H](CC1CCCCC1)C(=O)O; Ahp(2) = CCCCC[C@H](N)C(=O)O; NMeA = CN[C@@H](C)C(=O)O; CO = O=C([*:1])[*:2]; Sar = CNCC(=O)O

Experiments:
Myostatin = target: T1, Myostatin (Homo sapiens, UniProt O14793); assay: HepG2 reporter gene assay, Evaluation Procedure (2): 2-concentrations assay, myostatin inhibition; type: cell-based
T1 construct: active myostatin (also called mature myostatin) is a homodimer consisting of two C-terminal growth factor domains; purchased R&D systems 788-G8/CF
T1 sequence (O14793 267-375): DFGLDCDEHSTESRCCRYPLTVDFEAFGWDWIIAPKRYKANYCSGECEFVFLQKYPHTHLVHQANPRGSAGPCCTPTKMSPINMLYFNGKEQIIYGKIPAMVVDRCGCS
Summary of the method: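 Myostatin inhibition was measured in a luciferase reporter assay using HepG2 cells transfected with a pGL3 vector containing 12 CAGA repeats upstream of luciferase. After 20 to 24 hours with 10 ng/mL myostatin, cells received One-Glo:PBS (1:1) at 100 µL/well, were shaken for 5 min, and 20 µL/well was moved to 384-well plates and read on an Envision 2104.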

GDF-11 = target: T2, GDF-11 (Homo sapiens, UniProt O95390); assay: HepG2 reporter gene assay, Evaluation Procedure (2): 2-concentrations assay, GDF-11 inhibition; type: cell-based
T2 construct: purchased R&D systems 1958-GD-G8/CF
T2 sequence (O95390 299-407): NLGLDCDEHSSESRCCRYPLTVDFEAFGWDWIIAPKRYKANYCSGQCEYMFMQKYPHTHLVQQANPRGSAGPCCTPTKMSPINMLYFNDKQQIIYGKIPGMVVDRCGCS
Summary of the method: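 HepG2 cells carrying the transfected pGL3(CAGA)12-luc reporter, a pGL3 vector with luciferase placed downstream of 12 CAGA repeats, were stimulated with GDF-11 at a final 10 ng/mL together with test peptide. Blank wells received no GDF-11 and no peptide. Plates were incubated 20 to 24 hours at 37°C with 5% CO2. Luminescence from One-Glo substrate was read to calculate percent inhibition.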

[1] = peptide 30nM, Myostatin 10 ng/mL, HepG2, read-out: Myostatin Inhibition 30nM
[2] = peptide 100nM, Myostatin 10 ng/mL, HepG2, read-out: Myostatin Inhibition 100nM
[3] = HepG2, peptide 30nM, GDF-11 10 ng/mL, read-out: GDF11 Inhibition 30nM
[4] = HepG2, peptide 100nM, GDF-11 10 ng/mL, read-out: GDF11 Inhibition 100nM

| inhibition at 0.03 µM (Myostatin; [1]) [%] | inhibition at 0.1 µM (Myostatin; [2]) [%] | inhibition at 0.03 µM (GDF-11; [3]) [%] | inhibition at 0.1 µM (GDF-11; [4]) [%] | Compound | inhibition at 0.03 µM (Myostatin; HepG2, read-out: Myostatin Inhibition 30nM) [%] | inhibition at 0.1 µM (Myostatin; HepG2, read-out: Myostatin Inhibition 100nM) [%] | inhibition at 0.03 µM (GDF-11; HepG2, read-out: GDF11 Inhibition 30nM, peptide 30nM, GDF-11 10 ng/mL) [%] | inhibition at 0.1 µM (GDF-11; HepG2, read-out: GDF11 Inhibition 100nM, peptide 100nM, GDF-11 10 ng/mL) [%] |
| --- | --- | --- | --- | --- | --- | --- | --- | --- |
| 19 | 60 | 4 | 0 | CC[C@H](C)[C@@H]1NC(=O)[C@H](Cc2ccccc2)N(C)C(=O)[C@H](Cc2ccc(O)cc2)NC(=O)[C@H](Cc2c[nH]c3ccccc23)NC(=O)[C@H](C)NC(=O)CN(CCCC(=O)O)C(=O)CSC[C@H](C(=O)O)NC(=O)[C@H](Cc2ccccc2)N(C)C(=O)[C@H](C)N(C)C(=O)[C@H](CCCCCOC)NC(=O)[C@H](Cc2ccccc2)N(C)C(=O)[C@H](CCCNC(=N)N)NC(=O)[C@H](Cc2ccc(C(=O)O)cc2)NC(=O)[C@H](Cc2ccncc2)NC(=O)CN(C)C1=O [Myostatin_99_v228] ({CH2CO}-[Gly(N(CH2)3COOH)]AWY[NMeF]I[Sar][4Pal][Phe(4-COOH)]R[NMeF][X7][NMeA][NMeF][dC]-OH; thioether N-15) |  |  |  |  |
| 58 | 84 | 0 | 0 | CCCCCCC[C@@H]1NC(=O)[C@H](Cc2ccccc2)N(C)C(=O)[C@H](CCCNC(=N)N)NC(=O)[C@H](Cc2ccc(C(=O)O)cc2)NC(=O)[C@H](Cc2ccncc2)NC(=O)CN(C)C(=O)[C@H]([C@@H](C)CC)NC(=O)[C@H](Cc2ccccc2)N(C)C(=O)[C@H](Cc2ccc(O)cc2)NC(=O)[C@H](Cc2c[nH]c3ccccc23)NC(=O)[C@H](C)NC(=O)[C@H](CC2CCN(CC(=O)O)CC2)NC(=O)CSC[C@H](C(=O)O)NC(=O)[C@H](Cc2ccccc2)N(C)C(=O)[C@H](C)N(C)C1=O [Myostatin_99_v232] ({CH2CO}-[Ala(1-CH2CO2H-4-piperidyl)]AWY[NMeF]I[Sar][4Pal][Phe(4-COOH)]R[NMeF][X1][NMeA][NMeF][dC]-OH; thioether N-15) |  |  |  |  |
| 50 | 85 | 8 | 0 | CCCCCCC[C@@H]1NC(=O)[C@H](Cc2ccccc2)N(C)C(=O)[C@H](CCCNC(=N)N)NC(=O)[C@H](Cc2ccc(C(=O)O)cc2)NC(=O)[C@H](CC2CCN(CC(=O)O)CC2)NC(=O)CN(C)C(=O)[C@H]([C@@H](C)CC)NC(=O)[C@H](Cc2ccccc2)N(C)C(=O)[C@H](Cc2ccc(O)cc2)NC(=O)[C@H](Cc2c[nH]c3ccccc23)NC(=O)[C@H](C)NC(=O)CN(CCCC(=O)O)C(=O)CSC[C@H](C(=O)O)NC(=O)[C@H](Cc2ccccc2)N(C)C(=O)[C@H](C)N(C)C1=O [Myostatin_99_v233] ({CH2CO}-[Gly(N(CH2)3COOH)]AWY[NMeF]I[Sar][Ala(1-CH2CO2H-4-piperidyl)][Phe(4-COOH)]R[NMeF][X1][NMeA][NMeF][dC]-OH; thioether N-15) |  |  |  |  |
| 91 | 99 | 0 | 0 | CCCCCCC[C@@H]1NC(=O)[C@H](Cc2ccccc2)N(C)C(=O)[C@H](CCCNC(=N)N)NC(=O)[C@H](Cc2ccc(C(=O)O)cc2)NC(=O)[C@H](Cc2ccncc2)NC(=O)CN(C)C(=O)[C@H]([C@@H](C)CC)NC(=O)[C@H](Cc2ccccc2)N(C)C(=O)[C@H](Cc2ccc(O)cc2)NC(=O)[C@H](Cc2c[nH]c3ccccc23)NC(=O)[C@H](C)NC(=O)CN(CCCC(=O)O)C(=O)CSC[C@H](C(=O)N[C@@H](CC2CCN(CC(=O)O)CC2)C(N)=O)NC(=O)[C@H](Cc2ccccc2)N(C)C(=O)[C@H](C)N(C)C1=O [Myostatin_99_v235] ({CH2CO}-[Gly(N(CH2)3COOH)]AWY[NMeF]I[Sar][4Pal][Phe(4-COOH)]R[NMeF][X1][NMeA][NMeF][dC][Ala(1-CH2CO2H-4-piperidyl)]-NH2; thioether N-15) |  |  |  |  |
| 69 | 91 | 0 | 0 | CCCCC[C@@H]1NC(=O)[C@H](Cc2ccccc2)N(C)C(=O)[C@H](CCCNC(=N)N)NC(=O)[C@H](Cc2ccc(C(=O)O)cc2)NC(=O)[C@H](Cc2cccc(OCC(=O)O)c2)NC(=O)CN(C)C(=O)[C@H]([C@@H](C)CC)NC(=O)[C@H](Cc2ccccc2)N(C)C(=O)[C@H](Cc2ccc(O)cc2)NC(=O)[C@H](Cc2c[nH]c3ccccc23)NC(=O)[C@H](C)NC(=O)[C@H](C)N(C)C(=O)CSC[C@H](C(=O)O)NC(=O)[C@H](Cc2ccccc2)N(C)C(=O)[C@H](C)N(C)C1=O [Myostatin_99_v240] ({CH2CO}-[NMeA]AWY[NMeF]I[Sar][Phe(3-OCH2COOH)][Phe(4-COOH)]R[NMeF][Ahp(2)][NMeA][NMeF][dC]-OH; thioether N-15) |  |  |  |  |
| 18 | 58 | 0 | 0 | CCCCC[C@@H]1NC(=O)[C@H](Cc2ccccc2)N(C)C(=O)[C@H](CCCNC(=N)N)NC(=O)[C@H](Cc2ccc(C(=O)O)cc2)NC(=O)[C@H](Cc2cccc(OCC(=O)O)c2)NC(=O)CN(C)C(=O)[C@H]([C@@H](C)CC)NC(=O)[C@H](Cc2ccccc2)N(C)C(=O)[C@H](Cc2ccc(O)cc2)NC(=O)[C@H](Cc2c[nH]c3ccccc23)NC(=O)[C@H](C)NC(=O)CN(CCC(N)=O)C(=O)CSC[C@H](C(=O)O)NC(=O)[C@H](Cc2ccccc2)N(C)C(=O)[C@H](C)N(C)C1=O [Myostatin_99_v242] ({CH2CO}-[Gly(Nα-CH2CH2CONH2)]AWY[NMeF]I[Sar][Phe(3-OCH2COOH)][Phe(4-COOH)]R[NMeF][Ahp(2)][NMeA][NMeF][dC]-OH; thioether N-15) |  |  |  |  |
| 68 | 94 | 0 | 6 | CCCCCCCCCC[C@@H]1NC(=O)[C@H](CC2CCCCC2)NC(=O)[C@H](CCCNC(=N)N)NC(=O)[C@H](Cc2ccc(C(=O)O)cc2)NC(=O)[C@H](CCCCNC(=O)N2CCN(CC(=O)O)CC2)NC(=O)[C@H]2CCCN2C(=O)[C@H]([C@@H](C)CC)NC(=O)[C@H](CC2CCCCC2)N(C)C(=O)[C@H](Cc2ccc(O)cc2)NC(=O)[C@H](Cc2c[nH]c3ccccc23)NC(=O)[C@@H](CCC(=O)O)NC(=O)[C@H](C)NC(=O)CSC[C@H](C(=O)N2CCN(CC(=O)O)CC2)NC(=O)[C@H](Cc2ccccc2)N(C)C(=O)[C@H](C)N(C)C1=O [Myostatin_99_v247] ({CH2CO}-A[dE]WY[NMeCha]I[dP]K([CO-Piperazinyl(4-CH2COOH)])[Phe(4-COOH)]R[Cha][Gly(decyl)][NMeA][NMeF][dC]-{Piperazinyl(4-CH2COOH)}; thioether N-15) |  |  |  |  |
|  |  |  |  | CCCCCCC[C@@H]1NC(=O)[C@H](CC2CCCCC2)NC(=O)[C@H](CCCNC(=N)N)NC(=O)[C@H](Cc2ccc(C(=O)O)cc2)NC(=O)[C@H](CCCCNC(=O)N2CCN(CC(=O)O)CC2)NC(=O)[C@H]2CCCN2C(=O)[C@H]([C@@H](C)CC)NC(=O)[C@H](CC2CCCCC2)N(C)C(=O)[C@H](Cc2ccc(O)cc2)NC(=O)[C@H](Cc2ccc(-c3cnn(CC(=O)N(C)C)c3)cc2)NC(=O)[C@@H](CCC(=O)O)NC(=O)[C@H](C)NC(=O)CSC[C@H](C(=O)N2CCN(CC(=O)O)CC2)NC(=O)[C@H](Cc2ccccc2)N(C)C(=O)[C@H](C)N(C)C1=O [Myostatin_99_v256] ({CH2CO}-A[dE][X4]Y[NMeCha]I[dP]K([CO-Piperazinyl(4-CH2COOH)])[Phe(4-COOH)]R[Cha][X1][NMeA][NMeF][dC]-{Piperazinyl(4-CH2COOH)}; thioether N-15) | 57 | 88 | 0 | 4 |
